Measured values as given in US20190105367A1, “ANTIMICROBIAL 4-OXOQUINOLIZINES” (Emergent Product Development Gaithersburg Inc., priority 2011, published 2019).
Converted amounts (≈) assume the structure as drawn. Where two headings read alike, the source gives them in different places.

Columns and labels:
A. baumannii A14 [1] = assay: MIC without and with sub-inhibitory polymyxin B (Example 4); format: cell-based, Acinetobacter baumannii; details: 1st experiment
[2] = tested on: Acinetobacter sp. (H064200250); assay: as above; format: cell-based; details: for MIC: Acinetobacter
[3] = tested on: strains of A. baumannii and one strain of Acinetobacter sp.; assay: MIC with sub-inhibitory concentrations (0.25x MIC) of polymyxin B, panel of Acinetobacter strains (Example 4); format: cell-based
A. baumannii A489 [4] = assay: Preliminary MBC without and with sub-inhibitory polymyxin B (Example 4); format: cell-based, Acinetobacter baumannii; details: Acinetobacter baumannii, preliminary MBC
A. baumannii A401 [5] = assay: as above; format: cell-based, Acinetobacter baumannii; details: Acinetobacter baumannii
A. baumannii A387 [6] = assay: MIC without and with sub-inhibitory polymyxin B (Example 4); format: cell-based, Acinetobacter baumannii; details: for MIC without PB/MIC + PB: A. baumannii A387
[7] = tested on: Acinetobacter sp. (H064200250); assay: Preliminary MBC without and with sub-inhibitory polymyxin B (Example 4); format: cell-based; details: Acinetobacter, preliminary MBC
How it was run: (§1)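 Bactericidal endpoint scored visually on plates incubated at 37° C (18-20 hours): the lowest concentration where growth fell about 90% versus the positive control, generally leaving one colony or none.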

A. baumannii NCTC 13301 [8] = assay: MIC without and with sub-inhibitory polymyxin B (Example 4); format: cell-based, Acinetobacter baumannii
A. baumannii J2 [9] = assay: as above; format: cell-based, Acinetobacter baumannii; details: for MIC without PB/MIC + PB: A. baumannii J2; for MIC: Acinetobacter baumannii
A. baumannii A14 [10] = assay: Preliminary MBC without and with sub-inhibitory polymyxin B (Example 4); format: cell-based, Acinetobacter baumannii; details: A. baumannii A14, preliminary MBC, 1st experiment
A. baumannii A473 [11] = assay: MIC without and with sub-inhibitory polymyxin B (Example 4); format: cell-based, Acinetobacter baumannii; details: +0.06 μg/ml PB, 2nd experiment
A. baumannii ATCC 19606 [12] = assay: Preliminary MBC without and with sub-inhibitory polymyxin B (Example 4); format: cell-based, Acinetobacter baumannii; details: Acinetobacter baumannii
A. baumannii A489 [13] = assay: MIC without and with sub-inhibitory polymyxin B (Example 4); format: cell-based, Acinetobacter baumannii; details: for MIC without PB/MIC + PB: A. baumannii A489; for MIC: Acinetobacter baumannii
A. baumannii A401 [14] = assay: as above; format: cell-based, Acinetobacter baumannii; details: for MIC: Acinetobacter baumannii
A. baumannii A329 [15] = assay: Preliminary MBC without and with sub-inhibitory polymyxin B (Example 4); format: cell-based, Acinetobacter baumannii; details: Acinetobacter baumannii, A329, A. baumannii A329, +0.06 μg/ml PB, 2nd experiment, read-out: MBC
A. baumannii A390 = assay: as above; format: cell-based, Acinetobacter baumannii; details: Acinetobacter baumannii, A390, A. baumannii A390, +0.06 μg/ml PB, 2nd experiment, read-out: MBC
How it was run: as §1

A. baumannii A14 [16] = assay: as above; format: cell-based, Acinetobacter baumannii; details: 2nd experiment
How it was run: as §1

A. baumannii A473 [17] = assay: as above; format: cell-based, Acinetobacter baumannii; details: Acinetobacter baumannii, A473, A. baumannii A473, +0.06 μg/ml PB, 2nd experiment, read-out: MBC
How it was run: as §1

A. baumannii NCTC 13301 [18] = assay: as above; format: cell-based, Acinetobacter baumannii; details: Acinetobacter baumannii
How it was run: as §1

A. baumannii A387 [19] = assay: as above; format: cell-based, Acinetobacter baumannii; details: Acinetobacter baumannii
A. baumannii NCTC 13301 [20] = assay: MIC without and with sub-inhibitory polymyxin B (Example 4); format: cell-based, Acinetobacter baumannii; details: +[…] PB, 2nd experiment
A. baumannii A329 [21] = assay: as above; format: cell-based, Acinetobacter baumannii; details: A. baumannii A329; +0.06 μg/ml PB; 2nd experiment
A. baumannii ATCC 19606 [22] = assay: as above; format: cell-based, Acinetobacter baumannii; details: for MIC without PB/MIC + PB: A. baumannii ATCC 19606; for MIC: Acinetobacter baumannii
A. baumannii J2 [23] = assay: Preliminary MBC without and with sub-inhibitory polymyxin B (Example 4); format: cell-based, Acinetobacter baumannii; details: Acinetobacter baumannii, preliminary MBC
[24] = ratio, PB 0.06 μg/ml, 1st experiment

Cc1c(-c2cc(Cl)c(N)c(Cl)c2)ccn2c(=O)c(C(=O)O)cc(C3CC3)c12 [Compound 3, 8-(3,5-dichloro-4-amino-phenyl)-1-cyclopropyl-9-methyl-4-oxo-quinolizine-3-carboxylic acid]
MIC +0.06 μg/ml PB (A. baumannii A14 [1]; +0.06 μg/ml polymyxin B): 1 µg/mL | MIC (A. baumannii A14 [1]; Acinetobacter baumannii, 24 h, without polymyxin B, read-out: MIC without PB): > 32 µg/mL | MIC without PB/MIC + PB (A. baumannii A14 [1]; ratio, PB 0.06 μg/ml): ≥32 | MIC without PB/MIC + PB ([2]; Acinetobacter spp. H064200250 (OXA51), +[…] PB, 2nd experiment): 256 | MIC without PB/MIC + PB ([2]; Acinetobacter spp. H064200250, ratio, PB […], 1st experiment): 16 | MIC ([2]; Acinetobacter spp. H064200250 (OXA51), +[…] PB, 2nd experiment, read-out: MIC): 0.06 µg/mL (≈ 0.149 µM) | MIC ([2]; read-out: MIC +[…] PB, Acinetobacter spp. H064200250, +[…] polymyxin B, 1st experiment): 0.5 µg/mL (≈ 1.24 µM) | MIC range with PB (0.25x MIC) Oct. 1, 2008 n = 8 ([3]; 1st experiment, […] polymyxin B, ATCC 19606, A329, A390 and A473 not taken): ≤0.03 to 1 µg/mL | MIC range with PB (0.25x MIC) Oct. 14, 2008 n = 11 ([3]; 2nd experiment, 0.06 μg/ml polymyxin B, all strains except the ATCC strain): ≤0.03 to 0.5 µg/mL | MBC (A. baumannii A489 [4]; A489, A. baumannii A489, +[…] PB, 2nd experiment, read-out: MBC): ≤ 0.03 µg/mL | MBC (A. baumannii A489 [4]; A489, read-out: MBC +[…] PB, A. baumannii A489, +[…] polymyxin B, 1st experiment): 0.06 µg/mL (≈ 0.149 µM) | MBC (A. baumannii A401 [5]; A401, A baumannii A 401, +0.06 μg/ml PB, 2nd experiment, read-out: MBC): 0.125 µg/mL (≈ 0.31 µM) | MBC (A. baumannii A401 [5]; A401, read-out: MBC +0.06 μg/ml PB, A baumannii A 401, +0.06 μg/ml polymyxin B, 1st experiment): 0.125 µg/mL | MIC without PB/MIC + PB (A. baumannii A387 [6]; +0.06 μg/ml PB, 2nd experiment): ≥32 | MIC without PB/MIC + PB (A. baumannii A387 [6]; [24]): ≥32 | MIC (A. baumannii A387 [6]; Acinetobacter baumannii, A387, read-out: MIC +0.06 μg/ml PB, A. baumannii A387, +0.06 μg/ml polymyxin B, 1st experiment): ≤ 0.03 µg/mL | MBC ([7]; Acinetobacter spp. H064200250 (OXA51), +[…] PB, 2nd experiment, read-out: MBC): 0.06 µg/mL (≈ 0.149 µM) | MBC ([7]; read-out: MBC +[…] PB, Acinetobacter spp. H064200250, +[…] polymyxin B, 1st experiment): 0.5 µg/mL (≈ 1.24 µM) | MIC without PB/MIC + PB (A. baumannii NCTC 13301 [8]; A. baumannii NCTC 13301, ratio, PB […], 1st experiment): ≥64 | MIC (A. baumannii NCTC 13301 [8]; Acinetobacter baumannii, NCTC13301, read-out: MIC +[…] PB): 0.5 µg/mL (≈ 1.24 µM) | MIC without PB/MIC + PB (A. baumannii J2 [9]; +[…] PB, 2nd experiment): ≥1024 | MIC without PB/MIC + PB (A. baumannii J2 [9]; ratio, PB […], 1st experiment): 64 | MIC (A. baumannii J2 [9]; J2, A. baumannii J2, +[…] PB, 2nd experiment, read-out: MIC): ≤ 0.03 µg/mL | MIC (A. baumannii J2 [9]; J2, read-out: MIC +[…] PB, A. baumannii J2, +[…] polymyxin B, 1st experiment): 0.125 µg/mL (≈ 0.31 µM) | MBC +0.06 μg/ml PB (A. baumannii A14 [10]; +0.06 μg/ml polymyxin B): 1 µg/mL | MBC (A. baumannii A14 [10]; Acinetobacter baumannii, without polymyxin B, read-out: MBC without PB): > 32 µg/mL | MIC without PB/MIC + PB (A. baumannii A473 [11]; A. baumannii A473): ≥256 | MIC (A. baumannii A473 [11]; Acinetobacter baumannii, A473, A. baumannii A473, read-out: MIC): ≤ 0.03 µg/mL | MBC (A. baumannii ATCC 19606 [12]; ATCC19606, A. baumannii ATCC 19606, +0.06 μg/ml PB, 2nd experiment, read-out: MBC): ≤ 0.03 µg/mL | MBC (A. baumannii ATCC 19606 [12]; ATCC19606, read-out: MBC +0.06 μg/ml PB, A. baumannii ATCC 19606, +0.06 μg/ml polymyxin B, 1st experiment): ≤ 0.03 µg/mL | MIC without PB/MIC + PB (A. baumannii A489 [13]; +[…] PB, 2nd experiment): ≥128 | MIC without PB/MIC + PB (A. baumannii A489 [13]; ratio, PB […], 1st experiment): 64 | MIC (A. baumannii A489 [13]; A489, A. baumannii A489, +[…] PB, 2nd experiment, read-out: MIC): ≤ 0.03 µg/mL | MIC (A. baumannii A489 [13]; A489, read-out: MIC +[…] PB, A. baumannii A489, +[…] polymyxin B, 1st experiment): 0.06 µg/mL (≈ 0.149 µM) | MIC without PB/MIC + PB (A. baumannii A401 [14]; A baumannii A 401, ratio, PB 0.06 μg/ml, 1st experiment): 64 | MIC (A. baumannii A401 [14]; A401, A baumannii A 401, +0.06 μg/ml PB, 2nd experiment, read-out: MIC): 0.125 µg/mL (≈ 0.31 µM) | MIC (A. baumannii A401 [14]; A401, read-out: MIC +0.06 μg/ml PB, A baumannii A 401, +0.06 μg/ml polymyxin B, 1st experiment): 0.125 µg/mL | MBC (A. baumannii A329 [15]): 0.25 µg/mL (≈ 0.62 µM) | MBC (A. baumannii A390): 0.125 µg/mL (≈ 0.31 µM) | MBC (A. baumannii A14 [16]; A. baumannii A14, +0.06 μg/ml PB): 0.125 µg/mL (≈ 0.31 µM) | MBC (A. baumannii A14 [16]; Acinetobacter baumannii, A14, A. baumannii A14, without PB, read-out: MBC): > 32 µg/mL | MBC (A. baumannii A473 [17]): 0.06 µg/mL (≈ 0.149 µM) | MBC (A. baumannii NCTC 13301 [18]; NCTC13301, A. baumannii NCTC 13301, +[…] PB, preliminary MBC, 2nd experiment, read-out: MBC): ≤ 0.03 µg/mL | MBC (A. baumannii NCTC 13301 [18]; NCTC13301, read-out: MBC +[…] PB): 0.5 µg/mL (≈ 1.24 µM) | MBC (A. baumannii A387 [19]; A387, A. baumannii A387, +0.06 μg/ml PB, 2nd experiment, read-out: MBC): ≤ 0.03 µg/mL | MBC (A. baumannii A387 [19]; A387, read-out: MBC +0.06 μg/ml PB, A. baumannii A387, +0.06 μg/ml polymyxin B, 1st experiment): 0.25 µg/mL | MIC without PB/MIC + PB (A. baumannii NCTC 13301 [20]; A. baumannii NCTC 13301): ≥1024 | MIC (A. baumannii NCTC 13301 [20]; Acinetobacter baumannii, NCTC13301, A. baumannii NCTC 13301, read-out: MIC): ≤ 0.03 µg/mL | MIC without PB/MIC + PB (A. baumannii A329 [21]): 32 | MIC without PB/MIC + PB (A. baumannii ATCC 19606 [22]; +0.06 μg/ml PB, 2nd experiment): ≥8 | MIC without PB/MIC + PB (A. baumannii ATCC 19606 [22]; [24]): ≥8 | MIC (A. baumannii ATCC 19606 [22]; ATCC19606, A. baumannii ATCC 19606, +0.06 μg/ml PB, 2nd experiment, read-out: MIC): ≤ 0.03 µg/mL | MIC (A. baumannii ATCC 19606 [22]; ATCC19606, read-out: MIC +0.06 μg/ml PB, A. baumannii ATCC 19606, +0.06 μg/ml polymyxin B, 1st experiment): ≤ 0.03 µg/mL | MBC (A. baumannii J2 [23]; J2, A. baumannii J2, +[…] PB, 2nd experiment, read-out: MBC): ≤ 0.03 µg/mL | MBC (A. baumannii J2 [23]; J2, read-out: MBC +[…] PB, A. baumannii J2, +[…] polymyxin B, 1st experiment): 0.125 µg/mL (≈ 0.31 µM)
